Numbers after ± are expanded uncertainties.
Assay: molar heat capacity at constant pressure; xn = mol fraction of the nth substance listed
Conditions: 101 kPa, Liquid, Small sample (50 mg) DSC

Compound: N#Cc1ccccc1 [benzonitrile] + CCCCCCCCC
- molar heat capacity at constant pressure (285.15 K, x1 = 0.0239): 275.6 ± 5.5 J/K/mol
- molar heat capacity at constant pressure (285.15 K, x1 = 0.0499): 272.83 ± 5.5 J/K/mol
- molar heat capacity at constant pressure (285.15 K, x1 = 0.0989): 267.94 ± 5.4 J/K/mol
- molar heat capacity at constant pressure (285.15 K, x1 = 0.1984): 258.53 ± 5.2 J/K/mol
- molar heat capacity at constant pressure (285.15 K, x1 = 0.2543): 253.53 ± 5.1 J/K/mol
- molar heat capacity at constant pressure (285.15 K, x1 = 0.3): 249.7 ± 5 J/K/mol
- molar heat capacity at constant pressure (285.15 K, x1 = 0.4004): 242.4 ± 4.8 J/K/mol
- molar heat capacity at constant pressure (285.15 K, x1 = 0.4968): 234.22 ± 4.7 J/K/mol
- molar heat capacity at constant pressure (285.15 K, x1 = 0.6): 217.32 ± 4.3 J/K/mol
- molar heat capacity at constant pressure (285.15 K, x1 = 0.6996): 202.24 ± 4 J/K/mol
- molar heat capacity at constant pressure (285.15 K, x1 = 0.8): 189.2 ± 3.8 J/K/mol
- molar heat capacity at constant pressure (285.15 K, x1 = 0.9): 176.74 ± 3.5 J/K/mol
- molar heat capacity at constant pressure (285.15 K, x1 = 0.9498): 170.45 ± 3.4 J/K/mol
- molar heat capacity at constant pressure (285.15 K, x1 = 0.9805): 166.46 ± 3.3 J/K/mol
- molar heat capacity at constant pressure (285.15 K, x1 = 1): 163.9 ± 3.3 J/K/mol
- molar heat capacity at constant pressure (288.15 K, x1 = 0.0239): 276.8 ± 5.5 J/K/mol
- molar heat capacity at constant pressure (288.15 K, x1 = 0.0499): 274.01 ± 5.5 J/K/mol
- molar heat capacity at constant pressure (288.15 K, x1 = 0.0989): 269.06 ± 5.4 J/K/mol
- molar heat capacity at constant pressure (288.15 K, x1 = 0.1984): 259.47 ± 5.2 J/K/mol
- molar heat capacity at constant pressure (288.15 K, x1 = 0.2543): 254.27 ± 5.1 J/K/mol
- molar heat capacity at constant pressure (288.15 K, x1 = 0.3): 250.12 ± 5 J/K/mol
- molar heat capacity at constant pressure (288.15 K, x1 = 0.4004): 241.04 ± 4.8 J/K/mol
- molar heat capacity at constant pressure (288.15 K, x1 = 0.4968): 230.79 ± 4.6 J/K/mol
- molar heat capacity at constant pressure (288.15 K, x1 = 0.6): 216.76 ± 4.3 J/K/mol
- molar heat capacity at constant pressure (288.15 K, x1 = 0.6996): 202.88 ± 4.1 J/K/mol
- molar heat capacity at constant pressure (288.15 K, x1 = 0.8): 189.97 ± 3.8 J/K/mol
- molar heat capacity at constant pressure (288.15 K, x1 = 0.9): 177.48 ± 3.5 J/K/mol
- molar heat capacity at constant pressure (288.15 K, x1 = 0.9498): 171.18 ± 3.4 J/K/mol
- molar heat capacity at constant pressure (288.15 K, x1 = 0.9805): 167.19 ± 3.3 J/K/mol
- molar heat capacity at constant pressure (288.15 K, x1 = 1): 164.63 ± 3.3 J/K/mol
- molar heat capacity at constant pressure (293.15 K, x1 = 0.0239): 278.87 ± 5.6 J/K/mol
- molar heat capacity at constant pressure (293.15 K, x1 = 0.0499): 276.02 ± 5.5 J/K/mol
- molar heat capacity at constant pressure (293.15 K, x1 = 0.0989): 270.98 ± 5.4 J/K/mol
- molar heat capacity at constant pressure (293.15 K, x1 = 0.1984): 261.13 ± 5.2 J/K/mol
- molar heat capacity at constant pressure (293.15 K, x1 = 0.2543): 255.7 ± 5.1 J/K/mol
- molar heat capacity at constant pressure (293.15 K, x1 = 0.3): 251.28 ± 5 J/K/mol
- molar heat capacity at constant pressure (293.15 K, x1 = 0.4004): 241.24 ± 4.8 J/K/mol
- molar heat capacity at constant pressure (293.15 K, x1 = 0.4968): 230.43 ± 4.6 J/K/mol
- molar heat capacity at constant pressure (293.15 K, x1 = 0.6): 217.29 ± 4.3 J/K/mol
- molar heat capacity at constant pressure (293.15 K, x1 = 0.6996): 204.1 ± 4.1 J/K/mol
- molar heat capacity at constant pressure (293.15 K, x1 = 0.8): 191.28 ± 3.8 J/K/mol
- molar heat capacity at constant pressure (293.15 K, x1 = 0.9): 178.75 ± 3.6 J/K/mol
- molar heat capacity at constant pressure (293.15 K, x1 = 0.9498): 172.4 ± 3.5 J/K/mol
- molar heat capacity at constant pressure (293.15 K, x1 = 0.9805): 168.41 ± 3.4 J/K/mol
- molar heat capacity at constant pressure (293.15 K, x1 = 1): 165.82 ± 3.3 J/K/mol
- molar heat capacity at constant pressure (298.15 K, x1 = 0.0239): 280.98 ± 5.6 J/K/mol
- molar heat capacity at constant pressure (298.15 K, x1 = 0.0499): 278.11 ± 5.6 J/K/mol
- molar heat capacity at constant pressure (298.15 K, x1 = 0.0989): 272.97 ± 5.5 J/K/mol
- molar heat capacity at constant pressure (298.15 K, x1 = 0.1984): 262.87 ± 5.3 J/K/mol
- molar heat capacity at constant pressure (298.15 K, x1 = 0.2543): 257.26 ± 5.2 J/K/mol
- molar heat capacity at constant pressure (298.15 K, x1 = 0.3): 252.66 ± 5 J/K/mol
- molar heat capacity at constant pressure (298.15 K, x1 = 0.4004): 242.16 ± 4.8 J/K/mol
- molar heat capacity at constant pressure (298.15 K, x1 = 0.4968): 231.16 ± 4.6 J/K/mol
- molar heat capacity at constant pressure (298.15 K, x1 = 0.6): 218.27 ± 4.4 J/K/mol
- molar heat capacity at constant pressure (298.15 K, x1 = 0.6996): 205.37 ± 4.1 J/K/mol
- molar heat capacity at constant pressure (298.15 K, x1 = 0.8): 192.63 ± 3.9 J/K/mol
- molar heat capacity at constant pressure (298.15 K, x1 = 0.9): 180.02 ± 3.6 J/K/mol
- molar heat capacity at constant pressure (298.15 K, x1 = 0.9498): 173.65 ± 3.5 J/K/mol
- molar heat capacity at constant pressure (298.15 K, x1 = 0.9805): 169.64 ± 3.4 J/K/mol
- molar heat capacity at constant pressure (298.15 K, x1 = 1): 167.06 ± 3.3 J/K/mol
- molar heat capacity at constant pressure (303.15 K, x1 = 0.0239): 283.18 ± 5.7 J/K/mol
- molar heat capacity at constant pressure (303.15 K, x1 = 0.0499): 280.26 ± 5.6 J/K/mol
- molar heat capacity at constant pressure (303.15 K, x1 = 0.0989): 275.01 ± 5.5 J/K/mol
- molar heat capacity at constant pressure (303.15 K, x1 = 0.1984): 264.72 ± 5.3 J/K/mol
- molar heat capacity at constant pressure (303.15 K, x1 = 0.2543): 258.97 ± 5.2 J/K/mol
- molar heat capacity at constant pressure (303.15 K, x1 = 0.3): 254.22 ± 5.1 J/K/mol
- molar heat capacity at constant pressure (303.15 K, x1 = 0.4004): 243.44 ± 4.9 J/K/mol
- molar heat capacity at constant pressure (303.15 K, x1 = 0.4968): 232.33 ± 4.7 J/K/mol
- molar heat capacity at constant pressure (303.15 K, x1 = 0.6): 219.53 ± 4.4 J/K/mol
- molar heat capacity at constant pressure (303.15 K, x1 = 0.6996): 206.74 ± 4.1 J/K/mol
- molar heat capacity at constant pressure (303.15 K, x1 = 0.8): 194 ± 3.9 J/K/mol
- molar heat capacity at constant pressure (303.15 K, x1 = 0.9): 181.35 ± 3.6 J/K/mol
- molar heat capacity at constant pressure (303.15 K, x1 = 0.9498): 174.93 ± 3.5 J/K/mol
- molar heat capacity at constant pressure (303.15 K, x1 = 0.9805): 170.89 ± 3.4 J/K/mol
- molar heat capacity at constant pressure (303.15 K, x1 = 1): 168.32 ± 3.4 J/K/mol
- molar heat capacity at constant pressure (308.15 K, x1 = 0.0239): 285.48 ± 5.7 J/K/mol
- molar heat capacity at constant pressure (308.15 K, x1 = 0.0499): 282.5 ± 5.7 J/K/mol
- molar heat capacity at constant pressure (308.15 K, x1 = 0.0989): 277.16 ± 5.5 J/K/mol
- molar heat capacity at constant pressure (308.15 K, x1 = 0.1984): 266.66 ± 5.3 J/K/mol
- molar heat capacity at constant pressure (308.15 K, x1 = 0.2543): 260.77 ± 5.2 J/K/mol
- molar heat capacity at constant pressure (308.15 K, x1 = 0.3): 255.89 ± 5.1 J/K/mol
- molar heat capacity at constant pressure (308.15 K, x1 = 0.4004): 244.94 ± 4.9 J/K/mol
- molar heat capacity at constant pressure (308.15 K, x1 = 0.4968): 233.66 ± 4.7 J/K/mol
- molar heat capacity at constant pressure (308.15 K, x1 = 0.6): 220.89 ± 4.4 J/K/mol
- molar heat capacity at constant pressure (308.15 K, x1 = 0.6996): 208.21 ± 4.2 J/K/mol
- molar heat capacity at constant pressure (308.15 K, x1 = 0.8): 195.39 ± 3.9 J/K/mol
- molar heat capacity at constant pressure (308.15 K, x1 = 0.9): 182.67 ± 3.6 J/K/mol
- molar heat capacity at constant pressure (308.15 K, x1 = 0.9498): 176.22 ± 3.5 J/K/mol
- molar heat capacity at constant pressure (308.15 K, x1 = 0.9805): 172.18 ± 3.4 J/K/mol
- molar heat capacity at constant pressure (308.15 K, x1 = 1): 169.59 ± 3.4 J/K/mol
- molar heat capacity at constant pressure (313.15 K, x1 = 0.0239): 287.76 ± 5.8 J/K/mol
- molar heat capacity at constant pressure (313.15 K, x1 = 0.0499): 284.75 ± 5.7 J/K/mol
- molar heat capacity at constant pressure (313.15 K, x1 = 0.0989): 279.34 ± 5.6 J/K/mol
- molar heat capacity at constant pressure (313.15 K, x1 = 0.1984): 268.65 ± 5.4 J/K/mol
- molar heat capacity at constant pressure (313.15 K, x1 = 0.2543): 262.65 ± 5.2 J/K/mol
- molar heat capacity at constant pressure (313.15 K, x1 = 0.3): 257.63 ± 5.2 J/K/mol
- molar heat capacity at constant pressure (313.15 K, x1 = 0.4004): 246.59 ± 4.9 J/K/mol
- molar heat capacity at constant pressure (313.15 K, x1 = 0.4968): 235.16 ± 4.7 J/K/mol
- molar heat capacity at constant pressure (313.15 K, x1 = 0.6): 222.37 ± 4.5 J/K/mol
- molar heat capacity at constant pressure (313.15 K, x1 = 0.6996): 209.67 ± 4.2 J/K/mol
- molar heat capacity at constant pressure (313.15 K, x1 = 0.8): 196.84 ± 3.9 J/K/mol
- molar heat capacity at constant pressure (313.15 K, x1 = 0.9): 184.01 ± 3.7 J/K/mol
- molar heat capacity at constant pressure (313.15 K, x1 = 0.9498): 177.48 ± 3.5 J/K/mol
- molar heat capacity at constant pressure (313.15 K, x1 = 0.9805): 173.44 ± 3.5 J/K/mol
- molar heat capacity at constant pressure (313.15 K, x1 = 1): 170.87 ± 3.4 J/K/mol
